Experimental data: PubChem BioAssay AID248 (DTP/NCI, 2004)
Where “and” joins values, the source holds several entries; their conditions need not be identical. Identical values can stand only once. Toxic doses and inconclusive results are not listed. No stated cut-off is given here; in the data, active means T/C of 150% or more; inactive means T/C below 125%.

Tested on: L1210 leukemia ip in BDF1 mice, survival T/C
Assay: NCI In Vivo Anticancer Drug Screen. Data for tumor model L1210 Leukemia (intraperitoneal) in B6D2F1 (BDF1) mice
Conditions: endpoint: mean survival time, higher = longer survival
Procedure, shortened: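 Tumor was transplanted into mice, which were then dosed with test compound or vehicle alone. Survival was recorded for each group, and the treated figure was expressed relative to the control figure.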

[1] = dose: 100.0 mg/kg/injection, schedule: Q04DX003 (ip), vehicle: Klucel (hydroxypropylcellulose) (HPC)
[2] = dose: 200.0 mg/kg/injection, schedule: Q04DX003 (ip), vehicle: Klucel (hydroxypropylcellulose) (HPC)
[3] = dose: 400.0 mg/kg/injection, schedule: Q04DX003 (ip), vehicle: Klucel (hydroxypropylcellulose) (HPC)
[4] = dose: 100.0 mg/kg/injection, schedule: Q01DX001 (ip), vehicle: carboxymethylcellulose (CMC)
[5] = dose: 200.0 mg/kg/injection, schedule: Q01DX001 (ip), vehicle: carboxymethylcellulose (CMC)
[6] = dose: 400.0 mg/kg/injection, schedule: Q01DX001 (ip), vehicle: carboxymethylcellulose (CMC)
[7] = dose: 100.0 mg/kg/injection, schedule: Q01DX009 (ip), vehicle: Klucel (hydroxypropylcellulose) (HPC)
[8] = dose: 200.0 mg/kg/injection, schedule: Q01DX009 (ip), vehicle: Klucel (hydroxypropylcellulose) (HPC)
[9] = dose: 100.0 mg/kg/injection, schedule: Q01DX009 (ip), vehicle: saline with Tween-80
[10] = dose: 200.0 mg/kg/injection, schedule: Q01DX009 (ip), vehicle: saline with Tween-80
[11] = dose: 400.0 mg/kg/injection, schedule: Q01DX009 (ip), vehicle: saline with Tween-80
[12] = dose: 100.0 mg/kg/injection, schedule: Q04DX002 (ip), vehicle: Klucel (hydroxypropylcellulose) (HPC)
[13] = dose: 200.0 mg/kg/injection, schedule: Q04DX002 (ip), vehicle: Klucel (hydroxypropylcellulose) (HPC)
[14] = dose: 400.0 mg/kg/injection, schedule: Q04DX002 (ip), vehicle: Klucel (hydroxypropylcellulose) (HPC)

Measured: T/C

C/C(=N\N=C(/C)c1cccc(Br)c1)c1cccc(Br)c1
inactive: [1] 92 % of control | [2] 90 % of control | [3] 95 % of control

O=C(CCN1CC2CCC(CC2)C1)c1csc2ccccc12
inactive: dose: 88.8 mg/kg/injection, schedule: Q01DX001 (ip), vehicle: carboxymethylcellulose (CMC) 93 % of control | [4] 91 % of control | dose: 133.4 mg/kg/injection, schedule: Q01DX001 (ip), vehicle: carboxymethylcellulose (CMC) 98 % of control | [5] 97 % of control | dose: 300.0 mg/kg/injection, schedule: Q01DX001 (ip), vehicle: carboxymethylcellulose (CMC) 95 % of control | [6] 107 % of control

Cc1cc(=O)oc2cc(OC(=O)Nc3ccc(F)c([N+](=O)[O-])c3)ccc12
inactive: [7] 101 % of control | [8] 107 % of control

CCCC(=O)Nc1cc(OC)ccc1OC
inactive: [7] 106 % of control | [8] 97 % of control

O=C(O)c1c(F)cccc1F
inactive: dose: 25.0 mg/kg/injection, schedule: Q04DX003 (ip), vehicle: saline with Tween-80 91 % of control | dose: 50.0 mg/kg/injection, schedule: Q04DX003 (ip), vehicle: saline with Tween-80 91 % of control | [1] 95 % of control | dose: 100.0 mg/kg/injection, schedule: Q04DX003 (ip), vehicle: saline with Tween-80 88 % of control | [3] 88 % of control

O=[N+]([O-])c1ccccc1C/C=C/CCl
inactive: [4] 100 % of control | [5] 96 % of control | [6] 94 % of control

CC(=O)N(C)c1ccc(NC(=O)Nc2cc([N+](=O)[O-])ccc2F)cc1
inactive: [1] 91 % of control | [2] 97 % of control | [3] 92 % of control

NC/C=N/N=C(N)N
inactive: dose: 15.0 mg/kg/injection, schedule: Q01DX Z (ip), vehicle: saline 97 % of control | dose: 30.0 mg/kg/injection, schedule: Q01DX Z (ip), vehicle: saline 96 % of control | dose: 60.0 mg/kg/injection, schedule: Q01DX Z (ip), vehicle: saline 94 % of control | dose: 120.0 mg/kg/injection, schedule: Q01DX Z (ip), vehicle: saline 87 % of control | dose: 120.0 mg/kg/injection, schedule: Q01DX Z (oral), vehicle: saline 101 % of control | dose: 240.0 mg/kg/injection, schedule: Q01DX Z (oral), vehicle: saline 101 % of control | dose: 480.0 mg/kg/injection, schedule: Q01DX Z (oral), vehicle: saline 103 % of control | dose: 960.0 mg/kg/injection, schedule: Q01DX Z (oral), vehicle: saline 98 % of control

CC1CC2C(CC1=O)C(C)(C)CCC2(C)C (stereo unspecified)
inactive: [7] 92 % of control | [8] 94 % of control | [2] 107 % of control | dose: 400.0 mg/kg/injection, schedule: Q01DX009 (ip), vehicle: Klucel (hydroxypropylcellulose) (HPC) 90 % of control | [3] 91 % of control

Oc1ccc(O)c(CCCCCc2cc(O)ccc2O)c1
inactive: dose: 25.0 mg/kg/injection, schedule: Q01DX009 (ip), vehicle: other 106 % of control | dose: 50.0 mg/kg/injection, schedule: Q01DX009 (ip), vehicle: other 98 % of control | dose: 100.0 mg/kg/injection, schedule: Q01DX001 (ip), vehicle: saline with Tween-80 104 % of control | dose: 100.0 mg/kg/injection, schedule: Q01DX009 (ip), vehicle: other 97 % of control | dose: 200.0 mg/kg/injection, schedule: Q01DX001 (ip), vehicle: saline with Tween-80 100 % of control | dose: 400.0 mg/kg/injection, schedule: Q01DX001 (ip), vehicle: saline with Tween-80 100 % of control

O=C(O)CCN1C(=O)c2ccccc2C1=O
inactive: [9] 96 % of control | [10] 95 % of control | [11] 102 % of control

O=C1c2cccc3cccc(c23)C(=O)N1O
inactive: dose: 100.0 mg/kg/injection, schedule: Q01DX001 (ip), vehicle: other 104 % of control | dose: 200.0 mg/kg/injection, schedule: Q01DX001 (ip), vehicle: other 98 % of control | dose: 400.0 mg/kg/injection, schedule: Q01DX001 (ip), vehicle: other 106 % of control

O=C1C(F)=C(N2CC2)C(=O)C(F)=C1N1CC1
inactive: dose: 0.39 mg/kg/injection, schedule: Q01DX009 (ip), vehicle: Klucel (hydroxypropylcellulose) (HPC) 104 % of control | dose: 0.78 mg/kg/injection, schedule: Q01DX009 (ip), vehicle: Klucel (hydroxypropylcellulose) (HPC) 100 % of control | dose: 0.78 mg/kg/injection, schedule: Q04DX003 (ip), vehicle: alcohol 113 % of control | dose: 1.56 mg/kg/injection, schedule: Q01DX009 (ip), vehicle: Klucel (hydroxypropylcellulose) (HPC) 116 % of control | dose: 1.56 mg/kg/injection, schedule: Q04DX003 (ip), vehicle: alcohol 105 % of control | dose: 3.12 mg/kg/injection, schedule: Q01DX009 (ip), vehicle: Klucel (hydroxypropylcellulose) (HPC) 102 % of control | dose: 3.12 mg/kg/injection, schedule: Q04DX003 (ip), vehicle: alcohol 105 % of control | dose: 6.25 mg/kg/injection, schedule: Q01DX009 (ip), vehicle: Klucel (hydroxypropylcellulose) (HPC) 93 % of control | dose: 6.25 mg/kg/injection, schedule: Q04DX003 (ip), vehicle: saline 110 % of control | dose: 9.2 mg/kg/injection, schedule: Q01DX009 (ip), vehicle: Klucel (hydroxypropylcellulose) (HPC) 98 % of control | dose: 14.0 mg/kg/injection, schedule: Q01DX009 (ip), vehicle: Klucel (hydroxypropylcellulose) (HPC) 87 % of control

O=C(CCc1ccc(O)cc1)c1ccccc1
inactive: [12] 97 % of control | [13] 87 % of control | [14] 94 % of control

CC[N+](CC)(CC)Cc1ccccc1 (tested in a mixture with another compound)
inactive: dose: 6.25 mg/kg/injection, schedule: Q01DX009 (ip), vehicle: saline 97 % of control | dose: 12.5 mg/kg/injection, schedule: Q01DX009 (ip), vehicle: saline 103 % of control | dose: 25.0 mg/kg/injection, schedule: Q01DX001 (ip), vehicle: saline 96 % of control | dose: 25.0 mg/kg/injection, schedule: Q01DX009 (ip), vehicle: saline 95 % of control and 108 % of control | dose: 25.0 mg/kg/injection, schedule: Q04DX003 (ip), vehicle: saline 111 % of control and 96 % of control | dose: 50.0 mg/kg/injection, schedule: Q01DX001 (ip), vehicle: saline 112 % of control | dose: 50.0 mg/kg/injection, schedule: Q04DX003 (ip), vehicle: saline 102 % of control and 104 % of control | dose: 100.0 mg/kg/injection, schedule: Q01DX001 (ip), vehicle: saline 98 % of control and 106 % of control | [9] 92 % of control | dose: 100.0 mg/kg/injection, schedule: Q04DX003 (ip), vehicle: saline 88 % of control | [10] 96 % of control | [11] 92 % of control

CCOC(=O)CC(C)(C)CC(=O)C1CNC2=C(C1)C(=O)CC(C)(C)C2 (stereo unspecified)
inactive: dose: 100.0 mg/kg/injection, schedule: Q01DX005 (ip), vehicle: Klucel (hydroxypropylcellulose) (HPC) 102 % of control | [12] 89 % of control | dose: 200.0 mg/kg/injection, schedule: Q01DX005 (ip), vehicle: Klucel (hydroxypropylcellulose) (HPC) 118 % of control | [13] 92 % of control | dose: 400.0 mg/kg/injection, schedule: Q01DX005 (ip), vehicle: Klucel (hydroxypropylcellulose) (HPC) 91 % of control | [14] 97 % of control
